{"source": "ChEMBL document CHEMBL5113554", "about": "“Dactylosporolides: Glycosylated Macrolides from Dactylosporangium fulvum” (J Nat Prod, 2022)", "key": {"Plasmodium falciparum [1]": {"test_system": "Plasmodium falciparum", "test": "Antiparasitic activity against Plasmodium falciparum 3D7 infected in erythrocytes assessed as inhibition of parasite growth at 50 uM incubated for 48 hrs by SYBR Green I dye based fluorescence assay relative to control", "assay_type": "functional", "conditions": "3D7, Erythrocyte"}, "Plasmodium falciparum [2]": {"test_system": "Plasmodium falciparum", "test": "Antiparasitic activity against Plasmodium falciparum 3D7 infected in erythrocytes assessed as parasite growth inhibition incubated for 48 hrs by SYBR Green I dye based fluorescence assay", "assay_type": "functional, organism-based", "conditions": "3D7, Erythrocyte"}}}
{"smiles": "CO[C@@H]1C[C@H](O[C@H]2C[C@@H]3C[C@H](O)[C@@H](C)[C@](O)(C[C@@H](O)CCCC(=O)O[C@H](C[C@@H](O)[C@H](C)[C@@H](O)[C@@H](C)[C@@H](O)CC(C)C)[C@@H](C)/C=C/C=C/[C@@H](O)C2)O3)O[C@H](C)[C@H]1O", "values": [{"measurement": "inhibition at 50 µM", "setting": "Plasmodium falciparum [1]", "result": 34, "unit": "%"}, {"measurement": "IC50", "setting": "Plasmodium falciparum [2]", "result": "> 50", "unit": "µM"}]}
{"smiles": "CO[C@H]1[C@H](O)C[C@H](O[C@H]2[C@H](O)C[C@H](O[C@H]3CC[C@H](O[C@@H](CC(C)C)[C@H](C)[C@H](O)[C@@H](C)[C@H](O)C[C@H]4OC(=O)CCC[C@H](O)C[C@]5(O)O[C@H](C[C@H](O[C@H]6C[C@@H](OC)[C@H](O)[C@@H](C)O6)C[C@H](O)/C=C/C=C/[C@@H]4C)C[C@H](O)[C@H]5C)O[C@@H]3C)O[C@@H]2C)O[C@@H]1C", "values": [{"measurement": "inhibition at 50 µM", "setting": "Plasmodium falciparum [1]", "result": 95.6, "unit": "%"}, {"measurement": "IC50", "setting": "Plasmodium falciparum [2]", "result": 16, "unit": "µM"}]}
{"smiles": "CO[C@@H]1C[C@H](O[C@H]2C[C@@H]3C[C@H](O)[C@@H](C)[C@](O)(C[C@@H](O)CCCC(=O)O[C@H](C[C@@H](O)[C@H](C)[C@@H](O)[C@@H](C)[C@H](CC(C)C)O[C@H]4CC[C@H](O[C@H]5C[C@@H](O)[C@H](O[C@H]6C[C@@H](O)[C@H](O)[C@@H](C)O6)[C@@H](C)O5)[C@@H](C)O4)[C@@H](C)/C=C/C=C/[C@@H](O)C2)O3)O[C@H](C)[C@H]1O", "values": [{"measurement": "inhibition at 50 µM", "setting": "Plasmodium falciparum [1]", "result": 74.8, "unit": "%"}, {"measurement": "IC50", "setting": "Plasmodium falciparum [2]", "result": 32, "unit": "µM"}]}
{"smiles": "CCN(CC)CCCC(C)Nc1ccnc2cc(Cl)ccc12", "note": "(configuration not stated) [CHLOROQUINE]", "values": [{"measurement": "inhibition at 50 µM", "setting": "Plasmodium falciparum [1]", "result": 100, "unit": "%"}]}
